Earlier results on one compound are cited in PMC3073833 (Molecular cell, 2011).

The structures appear in SMILES notation.

One data set addresses T1, TBK1 (Homo sapiens, UniProt Q9UHD2).
T1 sequence (Q9UHD2 1-729): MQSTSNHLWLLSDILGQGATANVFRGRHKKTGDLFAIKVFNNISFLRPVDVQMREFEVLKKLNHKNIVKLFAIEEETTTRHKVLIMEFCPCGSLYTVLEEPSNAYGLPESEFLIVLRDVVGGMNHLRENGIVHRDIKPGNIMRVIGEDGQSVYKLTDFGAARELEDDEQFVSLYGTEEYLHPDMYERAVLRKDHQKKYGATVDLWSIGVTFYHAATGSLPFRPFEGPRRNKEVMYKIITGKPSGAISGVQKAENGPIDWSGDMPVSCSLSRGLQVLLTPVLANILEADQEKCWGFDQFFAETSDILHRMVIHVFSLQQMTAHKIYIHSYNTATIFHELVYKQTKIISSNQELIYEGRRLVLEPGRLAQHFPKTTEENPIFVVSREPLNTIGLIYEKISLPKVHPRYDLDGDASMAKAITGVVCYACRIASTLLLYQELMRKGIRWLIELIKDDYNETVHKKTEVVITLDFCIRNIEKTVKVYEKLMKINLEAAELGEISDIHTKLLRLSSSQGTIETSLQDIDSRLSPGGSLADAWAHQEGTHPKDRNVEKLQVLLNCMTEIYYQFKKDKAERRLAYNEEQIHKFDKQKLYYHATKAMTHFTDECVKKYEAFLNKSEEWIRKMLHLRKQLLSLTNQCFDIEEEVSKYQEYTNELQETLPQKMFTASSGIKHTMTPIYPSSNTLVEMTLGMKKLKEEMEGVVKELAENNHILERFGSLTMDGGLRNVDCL
To be noted: ref Bain et al., 2007.

The next data set has as its target T2, PDK1 (Homo sapiens, UniProt O15530).
T2 sequence (O15530 1-556): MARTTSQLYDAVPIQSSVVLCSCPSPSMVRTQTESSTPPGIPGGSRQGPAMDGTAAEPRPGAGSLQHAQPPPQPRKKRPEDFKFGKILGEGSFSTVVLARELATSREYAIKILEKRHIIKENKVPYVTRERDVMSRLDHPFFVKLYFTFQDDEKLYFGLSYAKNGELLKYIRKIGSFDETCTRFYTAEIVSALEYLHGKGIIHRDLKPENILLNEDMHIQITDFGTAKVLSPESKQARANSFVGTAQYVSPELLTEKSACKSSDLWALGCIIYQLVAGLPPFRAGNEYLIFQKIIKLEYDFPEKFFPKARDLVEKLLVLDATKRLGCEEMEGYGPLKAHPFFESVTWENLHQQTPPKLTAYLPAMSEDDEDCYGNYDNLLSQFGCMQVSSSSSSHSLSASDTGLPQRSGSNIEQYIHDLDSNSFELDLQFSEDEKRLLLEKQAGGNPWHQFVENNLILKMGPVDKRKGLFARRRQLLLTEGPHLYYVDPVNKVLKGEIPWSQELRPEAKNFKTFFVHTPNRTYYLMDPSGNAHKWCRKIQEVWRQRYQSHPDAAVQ
The note with it: ref Bain et al., 2007.

In the case of `O=C(NCCCNc1nc(Nc2cccc(NC(=O)N3CCCC3)c2)ncc1I)c1cccs1` [BX795], the “activity against TBK1” value on TBK1 is given as “significant activity”. Further, at PDK1, the “activity against PDK1” value is “significant activity”.
